Laboratory results from patent US20110177161A1, “PHARMACEUTICAL COMPOSITIONS OF [5(S)-(2'-HYDROXYETHOXY)-20(S)-CAMPTOTHECIN” (DR. REDDY'S LABORATORIES LIMITED, priority 2007, published 2011).

Assays:
Topoisomerase I = molecular target: T1, Topoisomerase I (Homo sapiens, UniProt P11387); assay: Topoisomerase assay (TopoGEN Topo I Drug Screening Kit); format: biochemical
T1 construct: purchased Topogen, Inc., Port Orange, Fla
T1 sequence (P11387 1-765): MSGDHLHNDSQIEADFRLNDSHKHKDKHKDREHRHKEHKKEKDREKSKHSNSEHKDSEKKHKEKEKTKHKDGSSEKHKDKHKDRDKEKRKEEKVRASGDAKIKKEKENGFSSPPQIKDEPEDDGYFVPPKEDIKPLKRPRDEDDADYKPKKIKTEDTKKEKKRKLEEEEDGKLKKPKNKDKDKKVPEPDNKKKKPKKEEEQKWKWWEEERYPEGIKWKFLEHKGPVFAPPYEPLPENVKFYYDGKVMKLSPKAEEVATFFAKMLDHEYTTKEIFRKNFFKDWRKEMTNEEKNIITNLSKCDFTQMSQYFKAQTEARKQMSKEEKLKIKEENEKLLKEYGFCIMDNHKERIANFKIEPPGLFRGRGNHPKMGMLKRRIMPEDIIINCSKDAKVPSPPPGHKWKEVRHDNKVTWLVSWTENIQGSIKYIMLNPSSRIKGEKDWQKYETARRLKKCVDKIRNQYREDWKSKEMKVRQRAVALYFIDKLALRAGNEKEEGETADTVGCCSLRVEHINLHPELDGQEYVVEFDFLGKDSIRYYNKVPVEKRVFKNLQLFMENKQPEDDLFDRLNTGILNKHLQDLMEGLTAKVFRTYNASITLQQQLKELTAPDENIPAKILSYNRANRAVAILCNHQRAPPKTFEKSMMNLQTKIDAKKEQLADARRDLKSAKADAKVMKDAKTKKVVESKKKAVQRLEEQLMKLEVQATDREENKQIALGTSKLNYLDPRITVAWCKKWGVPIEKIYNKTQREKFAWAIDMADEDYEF
Excerpt: Topoisomerase I introduces transient nicks in DNA at specific sites. Detection of these transient DNA nicks requires trapping the enzyme on DNA in a nicked intermediate complex using protein denaturants. The resulting covalent DNA/top I complexes contain nicked open circular DNA which can be detected by agarose gel electrophoresis (with ethidium bromide). Trapping nicked intermediates is relatively inefficient, however, inhibitors, such as the natural product camptothecin, stabilize the intermediate and lead to an increase in the nicked DNA product. This forms the basis for a mechanistic drug screen designed to allow detection of agents that affect topoisomerase I by stabilizing the cleaved intermediate complex.
The TopoGEN Topo I Drug Screening Kit (Topogen, Inc., Port Orange, Fla.) is designed to allow the investigator to quickly identify novel inhibitors of topoisomerase I. The kit allows the detection of novel compounds that either stabilize the nicked intermediate or otherwise inhibit catalytic activity of topoisomerase I.
The above reaction mixture is incubated at 37 degree C. for 30 minutes. The reaction is terminated by adding 2 μl of 10% SDS and the mixture is vortexed rapidly (SDS should be added while at 37 degree C. as cooling the tubes might reseal the nicked DNA). 10× Dye, about 2.5 μl per tube, is added and equal volumes of a mixture of chloroform and isoamyl alcohol (24:1) is added and centrifuged at 13000 rpm for 10 minutes. Samples are loaded on a 1% agarose gel and electrophoresed for 1 hour at 80 volts. The gel was viewed on UV transilluminator and the densitometric estimation of the bands was calculated.
The density of the DNA bands of both super coiled and relaxed forms of DNA was measured using the densitometer. The band intensity of treated (with single concentration of the test drug) and without the drug (i.e., the Control) were recorded. The percentage of relaxed form DNA compared to the supercoiled DNA was calculated for all the lanes including treated and control. • % inhibition of Topoisomerase activity was calculated as: […]

in vivo = assay: in vivo; set-up: species or system male Wistar rats; conditions: male, Wistar, rat, po, 2.5 mg/kg
Method: 5(S)-CPT (2.5 mg/kg) and 5(RS)-CPT (5 mg/kg, including 2.5 mg/kg of 5(S)-CPT in the mixture) were been administered to male Wistar Rats to evaluate oral pharmacokinetics.
Male Wistar rats, 6-8 weeks of age and weighing between 205 and 218 g were divided into groups of four rats. The oral pharmacokinetics test was carried out in overnight fasted condition and intravenous pharmacokinetics was carried out in fed condition. The test drugs were administered as a solution by oral gavage or lateral tail vein injection. Sparse blood samples of about 250 microliters were collected from retro-orbital plexus at designated time points into microcentrifuge tubes containing 25 microliters of EDTA. Plasma was separated by centrifuging blood at 12,800 rpm for 2 min and refrigerated until analysis.
Samples were tested for the presence of the test drug as follows. An aliquot of 100 μL plasma (stored at 8° C.) was precipitated with 400 μL of cold methanol for the estimation of total (lactone+carboxylate). […] Concentrations of the test drug were calculated from the linearity plotted by spiking known concentrations of the test drug in blank rat plasma. The pharmacokinetics of the test drug was calculated using non-compartmental analysis.

Structure (SMILES) | IC50 (Topoisomerase I) [µM] | fold more active than 5(R)-(2′-hydroxyethoxy)-20(S)-camptothecin in inhibiting topoisomerase I (Topoisomerase I) | times more active than 5(RS)-(2′-hydroxyethoxy)-20(S)-camptothecin in inhibiting topoisomerase I (Topoisomerase I) | AUC (in vivo) [µM·h]
CC[C@@]1(O)C(=O)OCc2c1cc1n(c2=O)C(OCCO)c2cc3ccccc3nc2-1 (mixture of isomers) [5(RS)-(2′-hydroxyethoxy)-20(S)-camptothecin, reference compound] | 12.5 | – | – | –
CC[C@@]1(O)C(=O)OCc2c1cc1n(c2=O)[C@@H](OCCO)c2cc3ccccc3nc2-1 [DRF-(5S,20S)-1042, 5(S)-(2′-hydroxyethoxy)-20(S)-camptothecin] | – | about 21 fold | about 12 times | 1.21
